Measured values reported in patent US10259774B1, “Antimicrobials for preservation of home and personal care products” (GALAXY SURFACTANTS LTD., priority 2018, dated 2019).

Key:
[1] = comparison surfactants, conditions not given; cited from earlier work
[2] = test system: Escherichia coli ATCC 8739, Pseudomonas aeruginosa ATCC 15442, Staphylococcus aureus ATCC 6538, Propionibacterium acnes MTCC 1951, Candida albicans ATCC 10231 …; assay: Preservative challenge test according to PCPC protocol; assay type: cell-based, bacteria, yeast and mold
Excerpt: The preservative efficacy of the compounds of Formula I has been tested in surfactant formulations typically containing anionic surfactant with pH ranging for 4 to 8.0. The personal care and home care formulations (body wash, shampoo, skin-cream and dish wash) are preserved with 1.0 to 2.0% of compounds of Formula I. The details of formulations are given in Examples 4, 5, 6, 7, 8, 9, and 10. The above formulations pass the challenge test performed according to PCPC protocol using Escherichia coli ATCC 8739, Pseudomonas aeruginosa ATCC 15442 (Gram −ve bacteria), Staphylococcus aureus ATCC 6538, Propionibacterium acnes MTCC 1951, (Gram +ve) Candida albicans ATCC 10231, Malassezia furfur MTCC 1374 (yeast) and Aspergillus niger ATCC 16404 (mold) The formulations pass the challenge test criteria for both bacteria and fungi.
The above formulations (Example 4, 5, 6, 7, 8, 9 & 10) pass the challenge test performed according to PCPC protocol using Escherichia coli ATCC 8739, Pseudomonas aeruginosa ATCC 15442 (Gram −ve bacteria), Staphylococcus aureus ATCC 6538, Propionibacterium acnes MTCC 1951, (Gram +ve) Candida albicans ATCC 10231, Malassezia furfur MTCC 1374 (yeast) and Aspergillus niger ATCC 16404 (mold).

Molecule: CCCCCCCCCCCC[N+](CCC(=O)OC)(CCC(=O)OC)Cc1ccccc1.[Cl-] [N-Lauryl, N,N-Dimethyldipropionate Benzyl Ammonium Chloride]
- MIC (%) (P acne): 0.4%
- MIC (%) (M furfur): 0.5%
- MIC (%) (C. albicans): 0.4%
- MIC (%) (Aspergillus niger): 0.2%
- MIC (%) (Pseudomonas sp): 0.5%
- MIC (%) (E coli): 0.3%
- MIC (%) (S aureus): 0.5%

Molecule: CCCCCCCCCCCCOS(=O)(=O)[O-].[Na+] [sodium lauryl sulphate]
- CMC [1]: 8.0 mmol/L

Molecule: N-Alkyl, N,N-dimethyl, N-benzyl ammonium chloride [Benzalkonium chloride]
- challenge test ([2]; 10% SLES preserved with 1% of the substance, PCPC protocol): failed to pass
- antimicrobial activity in the presence of anionic surfactant ([2]; used at 10000 ppm): does not exhibit any antimicrobial activity

Molecule: cocoamidopropyl betaine
- CMC [1]: 0.05 mmol/L
